Assay results: US11661437B2, “Steroid derivative regulators, method for preparing the same, and uses thereof” (priority 2018, dated 2023)

Tested on: GABA-A receptor
Test: 35S-TBPS binding assay on rat cerebral cortex cell membrane
Set-up: species or system Sprague-Dawley rat
Conditions: 2 nM 35S-TBPS, GABA added, read-out: 35S-TBPS bindng test, IC50 on inhibiting the TBPS binding activity
Protocol: 1.2.1 Extraction of Cerebral Cortex Cell Membrane:
1. The cerebral cortex of male Sprague-Dawley rat was isolated.
2. A pre-chilled 0.32 M sucrose solution (one tablet of protease inhibitor was added per 100 ml) was added to the cerebral cortex (the volume of sucrose solution was 10 times the volume of the cerebral cortex). The mixture was crushed with a 50 ml glass tissue homogenizer in batches and mixed well.
3. The mixture was centrifuged at 1500 g, 4° C. for 10 minutes, and the supernatant was collected.
4. The mixture was centrifuged at 20000 g, 4° C. for 30 minutes, and the supernatant was discarded.
5. The precipitate was resuspended with the pre-chilled phosphate buffer saline (PBS) (one tablet of protease inhibitor was added per 100 ml). An average of 4 ml of PBS was added per rat, and the mixture was mixed well with a glass tissue homogenizer.
6. The mixture was centrifuged at 10000 g, 4° C. for 10 minutes, and the supernatant was discarded.
7. Steps 5 and 6 were repeated three times.
8. Finally, the precipitate was resuspended with 4 volumes of PBS. The resulting solution was dispensed, frozen in liquid nitrogen, and stored at −80° C.
9. The protein concentration was measured by the bicinchoninic acid (BCA) method.
1.2.2 ^35S-TBPS Binding Assay
1. 230 μL of PBS was added to each well of a well plate with 1.1 ml volume.
2. 60 μL of the cerebral cortex cell membrane (5 μg/μL) solution was added to each well, and the mixture was mixed well.
3. The test compound (3 μL per well) was added, and the plate was incubated at 25° C. for 5 minutes. The DMSO concentration was 1%. The initial compound concentration was 1 NM, and a 3-fold dilution in gradient was carried out to obtain a total of 8 gradients and 2 replicates. 1% DMSO was used as a negative control, and 10 μM P026-2 was used as a positive control.
4. GABA was added at a final concentration of […], and incubated at 25° C. for 5 minutes. 1 mM GABA solution was formulated, and 1.5 μL of the solution was added to each well.
5. ^35S-TBPS was added at a final concentration of 2 nM. The concentration of isotope mother solution was 9.7 μM. After dilution with PBS for 100 times, 6 μL of the diluted isotope solution was added to each well.
6. The plate was incubated at 4° C. for 20 hours.
7. The FilterMate GF/C plate was pre-treated with 0.5% PEI, and incubated at 4° C. for 1 hour.
8. The FilterMate GF/C plate was washed with Universal Harvester twice, 50 ml PBS each time.
9. The reaction solution was transferred to the GF/C plate, and each well was washed 4 times with 900 μL PBS.
10. The washed GF/C plate was placed at 55° C. and dried for 10 minutes.
11. 40 μL of scintillation solution was added to each well, and the CPM value was read with TopCount.
1.2.3 Experimental Data Processing Method:
In the experiment, the CPM (counts per minute) value was read with TopCount. According to the readings of the High control (DMSO) and the Low control (10 μM of the positive compound) experimental groups, the % inhibition was calculated based on the following formula: % Inhibition=100×(CPMHigh control−CPMSample)/(CPMHigh control−CPMLow control)
The IC50 of the compound was calculated according to the following 4-parameter nonlinear logic formula: Y=Bottom+(Top−Bottom)/(1+10^((Log IC50−X)*Hill Slope)),
The effect of the compound of the present invention on the TBPS binding activity was determined by the above test, and the measured IC50 values are shown in Table 1.

Row | Structure (SMILES) | IC50
1 | C[C@@]1(O)CC[C@]2(F)C3CC[C@]4(C)[C@@H](C(=O)Cn5ncc(C6CC6)n5)CC[C@H]4[C@@H]3CC[C@@H]2C1 (stereo partly drawn) [Example 63, 2-(4-Cyclopropyl-2H-1,2,3-triazol-2-yl)-1-((3R,5R,8S,10R,13S,14S,17S)-10-fluoro-3-hydroxy-3,13-dimethylhexadecahydro-1H-cyclopenta[a]phenanthren-17-yl)ethan-1-one] | 25.8 nM
2 | C[C@@]1(O)CC[C@@]2(F)[C@H](CC[C@H]3[C@@H]4CC[C@H](C(=O)CNc5cnoc5)[C@@]4(C)CC[C@@H]32)C1 [Example 45, 1-((3R,5R,8S,9S,10R,13S,14S,17S)-10-Fluoro-3-hydroxy-3,13-dimethylhexadecahydro-1H-cyclopenta[a]phenanthren-17-yl)-2-(isoxazol-4-ylamino)ethan-1-one] | 34.4 nM
3 | CSc1cnn(CC(=O)[C@H]2CC[C@H]3[C@@H]4CC[C@@H]5C[C@](C)(O)CC[C@]5(F)[C@H]4CC[C@]23C)c1 [Example 55, 1-((3R,5R,8S,9S,10R,13S,14S,17S)-10-Fluoro-3-hydroxy-3,13-dimethylhexadecahydro-1H-cyclopenta[a]phenanthren-17-yl)-2-(4-(methylthio)-1H-pyrazol-1-yl)ethan-1-one] | 42.5 nM
4 | C[C@@]1(O)CC[C@@]2(F)[C@H](CC[C@H]3[C@@H]4CC[C@H](C(=O)COc5cc(C#N)ccc5F)[C@@]4(C)CC[C@@H]32)C1 [Example 34, 4-Fluoro-3-(2-((3R,5R,8S,9S,10R,13S,14S,17S)-10-fluoro-3-hydroxy-3,13-dimethylhexadecahydro-1H-cyclopenta[a]phenanthren-17-yl)-2-oxoethoxy)benzonitrile] | 9.3 nM
5 | C[C@@]1(O)CC[C@@]2(F)[C@H](CC[C@H]3[C@@H]4CC[C@H](C(=O)COc5cncnc5)[C@@]4(C)CC[C@@H]32)C1 [Example 49, 1-((3R,5R,8S,9S,10R,13S,14S,17S)-10-Fluoro-3-hydroxy-3,13-dimethylhexadecahydro-1H-cyclopenta[a]phenanthren-17-yl)-2-(pyrimidin-5-yloxy)ethan-1-one] | 48 nM
6 | C[C@@]1(O)CC[C@@]2(F)[C@H](CC[C@H]3[C@@H]4CC[C@H](C(=O)Cn5cc6c(n5)CCCC6)[C@@]4(C)CC[C@@H]32)C1 [Example 21, 1-((3R,5R,8S,9S,10R,13S,14S,17S)-10-Fluoro-3-hydroxy-3,13-dimethylhexadecahydro-1H-cyclopenta[a]phenanthren-17-yl)-2-(4,5,6,7-tetrahydro-2H-indazol-2-yl)ethan-1-one] | 36.1 nM
7 | C[C@@]1(O)CC[C@@]2(F)[C@H](CC[C@H]3[C@@H]4CC[C@H](C(=O)Cn5nnc6ccc(F)cc65)[C@@]4(C)CC[C@@H]32)C1 [Example 19, 2-(6-Fluoro-1H-benzo[d][1,2,3]triazol-1-yl)-1-((3R,5R,8S,9S,10R,13S,14S,17S)-10-fluoro-3-hydroxy-3,13-dimethylhexadecahydro-1H-cyclopenta[a]phenanthren-17-yl)ethan-1-one] | 15.2 nM
8 | C[C@@]1(O)CC[C@]2(F)C3CC[C@]4(C)[C@@H](C(=O)Cn5cc(C6CC6)nn5)CC[C@H]4[C@@H]3CC[C@@H]2C1 (stereo partly drawn) [Example 64, 2-(4-Cyclopropyl-1H-1,2,3-triazol-1-yl)-1-((3R,5R,8S,10R,13S,14S,17S)-10-fluoro-3-hydroxy-3,13-dimethylhexadecahydro-1H-cyclopenta[a]phenanthren-17-yl)ethan-1-one] | 24.8 nM
9 | C[C@@]1(O)CC[C@@]2(F)[C@H](CC[C@H]3[C@@H]4CC[C@H](C(=O)COc5ccc(C#N)cc5)[C@@]4(C)CC[C@@H]32)C1 [Example 33, 4-(2-((3R,5R,8S,9S,10R,13S,14S,17S)-10-Fluoro-3-hydroxy-3,13-dimethylhexadecahydro-1H-cyclopenta[a]phenanthren-17-yl)-2-oxoethoxy)benzonitrile] | 13.8 nM
10 | C[C@@]1(O)CC[C@@]2(F)[C@H](CC[C@H]3[C@@H]4CC[C@H](C(=O)Cn5cc(-c6ncco6)cn5)[C@@]4(C)CC[C@@H]32)C1 [Example 52, 1-((3R,5R,8S,9S,10R,13S,14S,17S)-10-Fluoro-3-hydroxy-3,13-dimethylhexadecahydro-1H-cyclopenta[a]phenanthren-17-yl)-2-(4-(oxazol-2-yl)-1H-pyrazol-1-yl)ethan-1-one] | 23 nM
11 | CCOC(=O)c1cnn(CC(=O)[C@H]2CC[C@H]3[C@@H]4CC[C@@H]5C[C@](C)(O)CC[C@]5(F)[C@H]4CC[C@]23C)c1 [Example 59, Ethyl 1-(2-((3R,5R,8S,9S,10R,13S,14S,17S)-10-fluoro-3-hydroxy-3,13-dimethylhexadecahydro-1H-cyclopenta[a]phenanthren-17-yl)-2-oxoethyl)-1H-pyrazole-4-carboxylate] | 9.4 nM
12 | C[C@@]1(O)CC[C@@]2(F)[C@H](CC[C@H]3[C@@H]4CC[C@H](C(=O)Cn5cc(Cl)cn5)[C@@]4(C)CC[C@@H]32)C1 [Example 37, 2-(4-Chloro-1H-pyrazol-1-yl)-1-((3R,5R,8S,9S,10R,13S,14S,17S)-10-fluoro-3-hydroxy-3,13-dimethylhexadecahydro-1H-cyclopenta[a]phenanthren-17-yl)ethan-1-one] | 17 nM
13 | C[C@@]1(O)CC[C@@]2(F)[C@H](CC[C@H]3[C@@H]4CC[C@H](C(=O)COc5ccc(C#N)c(F)c5)[C@@]4(C)CC[C@@H]32)C1 [Example 35, 2-Fluoro-4-(2-((3R,5R,8S,9S,10R,13S,14S,17S)-10-fluoro-3-hydroxy-3,13-dimethylhexadecahydro-1H-cyclopenta[a]phenanthren-17-yl)-2-oxoethoxy)benzonitrile] | 15.1 nM
14 | C[C@@]1(O)CC[C@@]2(F)[C@H](CC[C@H]3[C@@H]4CC[C@H](C(=O)Cn5nc6ccccc6n5)[C@@]4(C)CC[C@@H]32)C1 [Example 14, 2-(2H-Benzo[d][1,2,3]triazol-2-yl)-1-((3R,5R,8S,9S,10R,13S,14S,17S)-10-fluoro-3-hydroxy-3,13-dimethylhexadecahydro-1H-cyclopenta[a]phenanthren-17-yl)ethan-1-one] | 10.4 nM
15 | C[C@@]1(O)CC[C@@]2(F)[C@H](CC[C@H]3[C@@H]4CC[C@H](C(=O)CNc5ccc(F)cc5C#N)[C@@]4(C)CC[C@@H]32)C1 [Example 27, 5-Fluoro-2-((2-((3R,5R,8S,9S,10R,13S,14S,17S)-10-fluoro-3-hydroxy-3,13-dimethylhexadecahydro-1H-cyclopenta[a]phenanthren-17-yl)-2-oxoethyl)amino)benzonitrile] | 7.5 nM
